In US9469627B2, “Phenyloxadiazole derivatives as PGDS inhibitors” (Sanofi, priority 2009, dated 2016):

Assays:
[1] = Solid solubility (solidsol); assay type: physicochemical
human h-PGDS = human h-PGDS (Homo sapiens (Human), UniProt O60760); assay: Enzyme Immunoassay (EIA) method for inhibition of hematopoietic PGD2 synthase; assay type: biochemical; conditions: PGD2 formed from PGH2, measured by EIA; read-out: hPGDS EIA IC50
Text: The compounds of the present invention can be tested for enzymatic inhibiting activity against PGD2 Synthase according to either one of the following assays.
Assay 2: Enzyme Immunoassay (EIA) Method
• a. Preparation of 0.1M K2HPO4/KH2PO4 buffer (pH 7.4) • Prepare 0.1 M KH2PO4 from 1M KH2PO4 (Sigma, Cat# P-8709) • Prepare 0.1 M K2HPO4 from powder of K2HPO4 (Fisher, BP363-500) • Mix 0.1 M K2HPO4 with 0.1 M KH2PO4 to adjust pH to 7.4. • b. Preparation of 0.5% γ-globulin • Add 0.1 g of γ-globulin (Sigma, Cat# G-5009) to 20 mL 0.1 M K2HPO4/KH2PO4 buffer (pH 7.4) and make 1-mL/vial aliquots and store in −80° C. • c. Preparation of 100 mM GSH • Add 307 mg of GSH (Sigma, Cat# G-6529) to 10 mL 0.1 M K2HPO4/KH2PO4 buffer (pH 7.4) and store at −80° C. • d. Preparation of Reaction buffer: • 198 mL of 0.1M K2HPO4/KH2PO4 buffer (pH 7.4) • 2 mM GSH—Prepared from 100 mM GSH • 0.4 g Glycerol • 2 mL of 0.5% γ-globulin • Add 0.4 g of glycerol and 2 mL of 0.5% γ-globulin to 198 mL of 0.1 M K2HPO4/KH2PO4 • buffer (pH7.4). • Add 0.4 mL of 100 mM GSH to 19.6 mL reaction buffer before the assay (enough for two 96-well plates). • e. Preparation of FeCl2/citric acid stopping solution: (8 mg/mL FeCl2, 0.1 M citric acid) • Add 40 mg fresh FeCl2 (IGN, Cat#158046) to 5 mL 0.1 M citric acid (Sigma, Cat# C0759). • f. Preparation of MOX reagent: • 10% EtOH—Add 1 mL of EtOH to 9 mL of ultra pure H2O • Dissolve 0.1 g of methoxylamine (Cayman, Cat#400036/) in 10% EtOH (10 mL). • Add 0.82 g of sodium acetate (Cayman, Cat#400037) to MOX solution and dissolve. II. Materials and Method • Dimethylsulfoxide (DMSO; Sigma; Cat# D2650) • Prostaglandin D2-MOX express EIA kit (Caymen Chemical, Catalog No. 500151)
Before the assay, cool down 10 mL of acetone in polypropylene tubes and empty 96 well plates in ice. All the procedures except compound dilution are performed on ice.
• 1. Dilute compound in DMSO
• 2. […] Total PGD2 levels (pg/mL) were determined in the samples by EIA kits (Cayman Chemical, Catalog No. 500151) • Calculate amount of PGD2 as below • Calculated % Positive control according to the equation below; […]

human h-PGDS, sequence (O60760 whole entry): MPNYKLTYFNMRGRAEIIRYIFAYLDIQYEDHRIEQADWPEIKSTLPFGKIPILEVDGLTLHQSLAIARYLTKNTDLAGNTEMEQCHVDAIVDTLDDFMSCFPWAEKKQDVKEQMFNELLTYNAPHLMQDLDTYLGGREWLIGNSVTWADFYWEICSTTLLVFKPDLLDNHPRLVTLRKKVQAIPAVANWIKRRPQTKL

Row | Compound | solidsol [1] | IC50 (human h-PGDS)
1 | CC(C)(O)c1nc(-c2cccc(CNC(=O)c3cnc(-c4ccccn4)nc3)c2)no1 [Example 1, 2-Pyridin-2-yl-pyrimidine-5-carboxylic acid 3-[5-(1-hydroxy-1-methyl-ethyl)-1,2,4-oxadiazol-3-yl]-benzylamide] | 135.9 µM | 12 nM
2 | C[C@H](NC(=O)c1cnc(-c2ccccn2)nc1)c1cccc(-c2noc(C(C)(C)O)n2)c1 [Example 2, 2-Pyridin-2-yl-pyrimidine-5-carboxylic acid ((S)-1-{3-[5-(1-hydroxy-1-methyl-ethyl)-1,2,4-oxadiazol-3-yl]-phenyl}-ethyl)-amide] | 854.9 µM | 11 nM
3 | C[C@@H](NC(=O)c1cnc(-c2ccccn2)nc1)c1cccc(-c2noc(C(C)(C)O)n2)c1 [Example 3, 2-Pyridin-2-yl-pyrimidine-5-carboxylic acid ((R)-1-{3-[5-(1-hydroxy-1-methyl-ethyl)-1,2,4-oxadiazol-3-yl]-phenyl}-ethyl)-amide] | 29.4 µM | 26 nM
